Experimental data taken from patent publication US20250312462A1, “PAK1 DEGRADERS AND METHODS OF USE THEREOF” (INSTITUTE FOR CANCER RESEARCH D/B/A THE RESEARCH INSTITUTE …, priority 2022, published 2025).
Like-named read-outs stand apart in the source and are kept apart here.

Assays:
CAMKK1 = CAMKK1 (Homo sapiens, UniProt Q8N5S9); test: KINOMEscan; conditions: read-out: Percent Control
Experimental: (§1) The kinase engagement assay (KINOMEscan®) was performed by DiscoverX assessing binding abilities toward a set of kinases.

PRP4 = molecular target: T1, PRP4 (Homo sapiens, UniProt Q13523); test: KINOMEscan; assay type: binding; conditions: read-out: Percent Control
T1 construct: purchased DiscoverX

SRPK2 = SRPK2 (Homo sapiens, UniProt P78362); test: KINOMEscan; conditions: read-out: Percent Control
Experimental: as §1

[1] = molecular target: EGFR(L747-E749del, A750P) (Homo sapiens, UniProt P00533, A750P/DEL747-749); test: KINOMEscan; conditions: read-out: Percent Control
Experimental: as §1

LZK = LZK (Homo sapiens, UniProt O43283); test: KINOMEscan; conditions: read-out: Percent Control
Experimental: as §1

ROCK2 = ROCK2 (Homo sapiens, UniProt O75116); test: KINOMEscan; conditions: read-out: Percent Control
Experimental: as §1

OVCAR3 cells = test: Cell proliferation, MTT assay; assay type: cell-based; conditions: Homo sapiens, OVCAR-3, OVCAR3 cells, read-out: EC50, anti-proliferative
Experimental: […]. Cell proliferation was assessed by MTT assay. […].
Cells were plated at 2×10^3 cells per well in 96-well plates overnight and treated with various concentrations of Pak degraders for 72 hours. Cell viability was measured by MTT assay and the half maximal inhibitory concentration (IC50) was calculated using GraphPad Prism. Triplicates were performed for each sample and medium alone was used as a blank.
The anti-proliferative effects of PAK1 degradation and inhibition were evaluated. […]. […] […]. […] […].

VPS34 = VPS34 (Homo sapiens, UniProt Q8NEB9); test: KINOMEscan; conditions: read-out: Percent Control
Experimental: as §1

ZAK = ZAK (Homo sapiens, UniProt Q9NYL2); test: KINOMEscan; conditions: read-out: Percent Control
Experimental: as §1

MET = MET (Homo sapiens, UniProt P08581); test: KINOMEscan; conditions: read-out: Percent Control
Experimental: as §1

PAK7 = PAK7 (Homo sapiens, UniProt Q9P286); test: KINOMEscan; conditions: read-out: Percent Control
Experimental: as §1

KIT(D816H) = KIT(D816H) (Homo sapiens, UniProt P10721, D816H); test: KINOMEscan; conditions: read-out: Percent Control
Experimental: as §1

STK35 = STK35 (Homo sapiens, UniProt Q8TDR2); test: KINOMEscan; conditions: read-out: Percent Control
Experimental: as §1

MYLK2 = MYLK2 (Homo sapiens, UniProt Q9H1R3); test: KINOMEscan; conditions: read-out: Percent Control
Experimental: as §1

SNARK = SNARK (Homo sapiens, UniProt Q9H093); test: KINOMEscan; conditions: read-out: Percent Control
Experimental: as §1

EGFR(L858R) = EGFR(L858R) (Homo sapiens, UniProt P00533, L858R); test: KINOMEscan; conditions: read-out: Percent Control
Experimental: as §1

KIT(A829P) = KIT(A829P) (Homo sapiens, UniProt P10721, A829P); test: KINOMEscan; conditions: read-out: Percent Control
Experimental: as §1

DYRK2 = DYRK2 (Homo sapiens, UniProt Q92630); test: KINOMEscan; conditions: read-out: Percent Control
Experimental: as §1

NEK4 = NEK4 (Homo sapiens, UniProt P51957); test: KINOMEscan; conditions: read-out: Percent Control
Experimental: as §1

AKT2 = AKT2 (Homo sapiens, UniProt P31751); test: KINOMEscan; conditions: read-out: Percent Control
Experimental: as §1

YANK1 = YANK1 (Homo sapiens, UniProt Q8WU08); test: KINOMEscan; conditions: read-out: Percent Control
Experimental: as §1

MERTK = MERTK (Homo sapiens, UniProt Q12866); test: KINOMEscan; conditions: read-out: Percent Control
Experimental: as §1

CDC2L1 = CDC2L1 (Homo sapiens, UniProt P21127); test: KINOMEscan; conditions: read-out: Percent Control
Experimental: as §1

EPHA6 = EPHA6 (Homo sapiens, UniProt Q9UF33); test: KINOMEscan; conditions: read-out: Percent Control
Experimental: as §1

FAK = FAK (Homo sapiens, UniProt Q05397); test: KINOMEscan; conditions: read-out: Percent Control
Experimental: as §1

VRK2 = VRK2 (Homo sapiens, UniProt Q86Y07); test: KINOMEscan; conditions: read-out: Percent Control
Experimental: as §1

IRAK1 = IRAK1 (Homo sapiens, UniProt P51617); test: KINOMEscan; conditions: read-out: Percent Control
Experimental: as §1

DMPK = DMPK (Homo sapiens, UniProt Q09013); test: KINOMEscan; conditions: read-out: Percent Control
Experimental: as §1

BUB1 = BUB1 (Homo sapiens, UniProt O43683); test: KINOMEscan; conditions: read-out: Percent Control
Experimental: as §1

SRPK3 = SRPK3 (Homo sapiens, UniProt Q9UPE1); test: KINOMEscan; conditions: read-out: Percent Control
Experimental: as §1

MAP3K2 = MAP3K2 (Homo sapiens, UniProt Q9Y2U5); test: KINOMEscan; conditions: read-out: Percent Control
Experimental: as §1

EPHA5 = EPHA5 (Homo sapiens, UniProt P54756); test: KINOMEscan; conditions: read-out: Percent Control
Experimental: as §1

ADCK3 = ADCK3 (Homo sapiens, UniProt Q8NI60); test: KINOMEscan; conditions: read-out: Percent Control
Experimental: as §1

CDC2L2 = CDC2L2 (Homo sapiens, UniProt Q9UQ88); test: KINOMEscan; conditions: read-out: Percent Control
Experimental: as §1

FLT3-autoinhibited = FLT3-autoinhibited (Homo sapiens, UniProt P36888); test: KINOMEscan; conditions: read-out: Percent Control
Experimental: as §1

Sequence of YANK1 (Q8WU08 whole entry): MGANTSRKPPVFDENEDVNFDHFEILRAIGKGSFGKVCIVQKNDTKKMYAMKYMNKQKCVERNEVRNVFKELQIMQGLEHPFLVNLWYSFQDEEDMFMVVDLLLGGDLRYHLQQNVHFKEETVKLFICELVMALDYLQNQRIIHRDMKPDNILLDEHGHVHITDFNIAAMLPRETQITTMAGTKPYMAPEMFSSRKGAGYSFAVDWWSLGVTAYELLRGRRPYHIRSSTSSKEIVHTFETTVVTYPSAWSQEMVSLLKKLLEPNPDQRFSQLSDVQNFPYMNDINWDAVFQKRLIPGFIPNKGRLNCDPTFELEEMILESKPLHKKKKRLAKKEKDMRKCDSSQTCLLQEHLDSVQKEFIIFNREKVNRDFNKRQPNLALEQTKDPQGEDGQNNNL
Sequence of EPHA5 (P54756 25-1037): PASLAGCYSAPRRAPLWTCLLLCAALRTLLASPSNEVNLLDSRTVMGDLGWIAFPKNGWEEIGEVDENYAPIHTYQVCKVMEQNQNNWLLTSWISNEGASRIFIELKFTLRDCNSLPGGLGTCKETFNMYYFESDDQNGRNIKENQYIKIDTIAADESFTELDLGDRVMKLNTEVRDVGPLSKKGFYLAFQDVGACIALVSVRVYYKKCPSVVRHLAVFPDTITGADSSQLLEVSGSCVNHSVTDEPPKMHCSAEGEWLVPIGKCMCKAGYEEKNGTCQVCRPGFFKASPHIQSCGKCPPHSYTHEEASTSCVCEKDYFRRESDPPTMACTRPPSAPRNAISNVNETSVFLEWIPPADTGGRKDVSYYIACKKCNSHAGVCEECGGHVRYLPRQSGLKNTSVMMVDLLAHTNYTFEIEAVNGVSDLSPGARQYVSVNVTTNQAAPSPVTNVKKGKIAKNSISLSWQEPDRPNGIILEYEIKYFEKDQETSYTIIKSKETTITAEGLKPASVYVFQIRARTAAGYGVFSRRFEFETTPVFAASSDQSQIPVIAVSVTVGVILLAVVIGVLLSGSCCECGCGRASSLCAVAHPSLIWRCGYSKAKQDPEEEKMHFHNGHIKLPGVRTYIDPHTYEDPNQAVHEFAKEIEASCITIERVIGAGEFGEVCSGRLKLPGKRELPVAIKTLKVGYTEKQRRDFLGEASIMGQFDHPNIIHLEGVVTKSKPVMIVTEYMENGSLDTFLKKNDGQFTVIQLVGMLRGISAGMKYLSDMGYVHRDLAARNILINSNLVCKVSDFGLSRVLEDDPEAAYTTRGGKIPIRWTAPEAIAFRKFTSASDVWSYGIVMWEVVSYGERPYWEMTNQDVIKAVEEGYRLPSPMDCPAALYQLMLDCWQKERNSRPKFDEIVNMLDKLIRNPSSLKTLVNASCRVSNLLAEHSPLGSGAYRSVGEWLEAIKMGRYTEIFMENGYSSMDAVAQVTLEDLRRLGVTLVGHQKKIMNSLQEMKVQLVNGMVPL
Sequence of IRAK1 (P51617 whole entry): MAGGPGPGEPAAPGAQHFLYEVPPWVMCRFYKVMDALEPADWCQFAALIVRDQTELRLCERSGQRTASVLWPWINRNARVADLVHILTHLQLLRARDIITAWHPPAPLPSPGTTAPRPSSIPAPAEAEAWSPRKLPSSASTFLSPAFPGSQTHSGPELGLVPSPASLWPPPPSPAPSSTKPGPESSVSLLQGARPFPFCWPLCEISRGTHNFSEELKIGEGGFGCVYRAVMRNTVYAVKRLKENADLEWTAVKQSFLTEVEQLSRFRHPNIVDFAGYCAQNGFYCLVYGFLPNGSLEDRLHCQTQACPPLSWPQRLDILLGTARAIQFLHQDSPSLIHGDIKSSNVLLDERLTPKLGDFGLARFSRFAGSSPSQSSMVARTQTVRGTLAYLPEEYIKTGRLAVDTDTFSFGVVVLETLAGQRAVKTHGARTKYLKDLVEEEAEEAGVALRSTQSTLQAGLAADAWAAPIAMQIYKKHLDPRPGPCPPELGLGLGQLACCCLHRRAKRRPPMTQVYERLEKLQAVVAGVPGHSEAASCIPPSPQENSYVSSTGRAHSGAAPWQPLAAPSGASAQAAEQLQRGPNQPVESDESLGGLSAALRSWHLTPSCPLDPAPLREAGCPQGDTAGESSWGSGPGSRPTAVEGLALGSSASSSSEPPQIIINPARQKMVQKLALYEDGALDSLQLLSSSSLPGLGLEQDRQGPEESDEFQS
Sequence of VPS34 (Q8NEB9 whole entry): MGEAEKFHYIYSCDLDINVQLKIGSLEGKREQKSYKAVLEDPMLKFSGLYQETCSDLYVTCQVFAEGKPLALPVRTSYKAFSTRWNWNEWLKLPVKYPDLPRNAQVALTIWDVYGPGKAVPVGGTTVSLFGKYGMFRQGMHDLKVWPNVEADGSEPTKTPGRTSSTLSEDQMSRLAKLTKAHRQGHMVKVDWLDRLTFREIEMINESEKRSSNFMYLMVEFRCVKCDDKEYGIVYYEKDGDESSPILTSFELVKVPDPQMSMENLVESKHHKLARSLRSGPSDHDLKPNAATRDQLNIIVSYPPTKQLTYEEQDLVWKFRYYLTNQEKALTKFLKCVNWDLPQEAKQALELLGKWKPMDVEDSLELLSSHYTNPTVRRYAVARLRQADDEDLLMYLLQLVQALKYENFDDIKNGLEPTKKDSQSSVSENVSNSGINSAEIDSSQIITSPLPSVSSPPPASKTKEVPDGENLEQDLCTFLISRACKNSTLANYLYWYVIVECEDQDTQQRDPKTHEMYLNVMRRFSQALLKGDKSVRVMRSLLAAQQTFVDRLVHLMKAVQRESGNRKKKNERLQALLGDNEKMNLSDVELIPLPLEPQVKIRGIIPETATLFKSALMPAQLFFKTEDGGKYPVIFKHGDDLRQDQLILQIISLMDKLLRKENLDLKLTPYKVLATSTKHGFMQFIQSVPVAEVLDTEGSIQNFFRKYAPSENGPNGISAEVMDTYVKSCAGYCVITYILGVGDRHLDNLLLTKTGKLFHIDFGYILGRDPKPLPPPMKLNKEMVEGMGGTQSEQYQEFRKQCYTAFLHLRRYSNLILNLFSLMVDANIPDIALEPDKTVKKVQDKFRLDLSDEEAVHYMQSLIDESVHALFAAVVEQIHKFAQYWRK
Sequence of DMPK (Q09013 whole entry): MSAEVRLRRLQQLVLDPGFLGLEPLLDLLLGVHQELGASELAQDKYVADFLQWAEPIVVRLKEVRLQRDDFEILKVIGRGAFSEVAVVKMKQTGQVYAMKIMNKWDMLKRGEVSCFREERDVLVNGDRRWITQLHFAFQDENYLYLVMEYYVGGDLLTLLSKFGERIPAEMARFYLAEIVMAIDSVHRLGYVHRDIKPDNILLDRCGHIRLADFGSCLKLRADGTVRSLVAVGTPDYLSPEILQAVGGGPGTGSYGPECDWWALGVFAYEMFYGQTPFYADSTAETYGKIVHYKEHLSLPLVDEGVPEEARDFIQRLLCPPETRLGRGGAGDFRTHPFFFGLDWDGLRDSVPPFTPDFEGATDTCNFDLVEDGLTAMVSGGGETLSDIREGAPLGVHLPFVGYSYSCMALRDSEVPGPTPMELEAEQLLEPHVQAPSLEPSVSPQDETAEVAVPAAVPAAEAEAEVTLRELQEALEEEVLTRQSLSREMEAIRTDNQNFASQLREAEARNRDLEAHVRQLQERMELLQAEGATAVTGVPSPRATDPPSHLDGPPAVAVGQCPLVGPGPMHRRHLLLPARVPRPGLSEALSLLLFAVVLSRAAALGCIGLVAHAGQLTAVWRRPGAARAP
Sequence of SNARK (Q9H093 whole entry): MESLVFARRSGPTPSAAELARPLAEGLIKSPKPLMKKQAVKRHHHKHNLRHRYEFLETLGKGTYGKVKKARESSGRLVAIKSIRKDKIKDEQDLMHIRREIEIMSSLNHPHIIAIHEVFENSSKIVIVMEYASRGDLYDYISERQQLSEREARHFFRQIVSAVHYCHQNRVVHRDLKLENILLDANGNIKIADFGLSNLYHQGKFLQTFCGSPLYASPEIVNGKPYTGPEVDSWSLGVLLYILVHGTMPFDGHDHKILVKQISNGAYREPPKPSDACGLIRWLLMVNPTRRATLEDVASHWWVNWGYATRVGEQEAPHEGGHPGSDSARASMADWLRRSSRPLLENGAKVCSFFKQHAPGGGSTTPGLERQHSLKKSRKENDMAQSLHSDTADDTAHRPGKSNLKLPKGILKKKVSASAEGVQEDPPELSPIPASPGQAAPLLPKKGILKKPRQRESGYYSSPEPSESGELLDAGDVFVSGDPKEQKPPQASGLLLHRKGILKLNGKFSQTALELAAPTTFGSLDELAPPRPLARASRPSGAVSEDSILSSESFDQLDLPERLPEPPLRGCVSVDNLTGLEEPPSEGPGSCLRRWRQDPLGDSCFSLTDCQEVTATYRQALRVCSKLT
Sequence of MAP3K2 (Q9Y2U5 whole entry): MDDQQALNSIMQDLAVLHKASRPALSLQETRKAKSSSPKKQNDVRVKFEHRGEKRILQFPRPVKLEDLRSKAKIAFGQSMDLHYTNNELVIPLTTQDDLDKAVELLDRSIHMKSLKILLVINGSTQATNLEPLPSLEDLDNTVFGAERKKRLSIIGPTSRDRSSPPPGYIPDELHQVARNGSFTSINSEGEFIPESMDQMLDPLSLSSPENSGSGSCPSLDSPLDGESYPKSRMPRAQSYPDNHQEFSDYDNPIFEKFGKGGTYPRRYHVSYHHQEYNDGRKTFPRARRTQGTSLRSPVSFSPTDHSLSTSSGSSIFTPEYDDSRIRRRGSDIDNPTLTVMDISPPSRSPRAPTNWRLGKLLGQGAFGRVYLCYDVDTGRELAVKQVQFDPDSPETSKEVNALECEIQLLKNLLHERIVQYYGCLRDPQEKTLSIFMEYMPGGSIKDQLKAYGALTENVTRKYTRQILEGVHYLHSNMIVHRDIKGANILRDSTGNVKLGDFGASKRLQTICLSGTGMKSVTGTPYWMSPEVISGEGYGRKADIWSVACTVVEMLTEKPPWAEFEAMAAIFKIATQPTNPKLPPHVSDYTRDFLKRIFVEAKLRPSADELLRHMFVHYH

## O=C1CCC(N2C(=O)c3cccc(NCCCCCCCCNC(=O)N4CC[C@H](NC5=Nc6cc(F)ccc6N(CC(F)F)c6ccc(Cl)cc65)C4)c3C2=O)C(=O)N1 (stereo partly drawn) [BJG-05-039, (3S)-3-((2-Chloro-5-(2,2-difluoroethyl)-8-fluoro-5H-dibenzo[b,e][1,4]diazepin-11-yl)amino)-N-(8-((2-(2,6-dioxopiperidin-3-yl)-1,3-dioxoisoindolin-4-yl)amino)octyl)pyrrolidine-1-carboxamide]
CAMKK1
  remaining binding at 10 µM: 52%
PRP4
  remaining binding at 10 µM: 97%
SRPK2
  remaining binding at 10 µM: 91%
[1]
  remaining binding at 10 µM: 78%
LZK
  remaining binding at 10 µM: 82%
ROCK2
  remaining binding at 10 µM: 100%
OVCAR3 cells; first statement of b311
  EC50: 8.4 nM
OVCAR3 cells; second listing of b311
  EC50: 102 nM
VPS34
  remaining binding at 10 µM: 100%
ZAK
  remaining binding at 10 µM: 97%
MET
  remaining binding at 10 µM: 68%
PAK7
  remaining binding at 10 µM: 42%
KIT(D816H)
  remaining binding at 10 µM: 100%
STK35
  remaining binding at 10 µM: 83%
MYLK2
  remaining binding at 10 µM: 93%
SNARK
  remaining binding at 10 µM: 96%
EGFR(L858R)
  remaining binding at 10 µM: 74%
KIT(A829P)
  remaining binding at 10 µM: 92%
DYRK2
  remaining binding at 10 µM: 89%
NEK4
  remaining binding at 10 µM: 99%
AKT2
  remaining binding at 10 µM: 86%
YANK1
  remaining binding at 10 µM: 100%
MERTK
  remaining binding at 10 µM: 90%
CDC2L1
  remaining binding at 10 µM: 53%
EPHA6
  remaining binding at 10 µM: 94%
FAK
  remaining binding at 10 µM: 65%
VRK2
  remaining binding at 10 µM: 94%
IRAK1
  remaining binding at 10 µM: 100%
DMPK
  remaining binding at 10 µM: 52%
BUB1
  remaining binding at 10 µM: 73%
SRPK3
  remaining binding at 10 µM: 93%
MAP3K2
  remaining binding at 10 µM: 76%
EPHA5
  remaining binding at 10 µM: 99%
ADCK3
  remaining binding at 10 µM: 83%
CDC2L2
  remaining binding at 10 µM: 84%
FLT3-autoinhibited
  remaining binding at 10 µM: 100%
